Test results: EP1388586A2, “Identification of broadly reactive DR restricted epitopes” (priority 1998, dated 1999)
pIC50: −log10 of the molar value. Like-named read-outs stand apart in the source and are kept apart here. Ends that are not written are not given here. Peptide text beside a SMILES is read from it.

Key:
[1] = target: T1, DRB1*0301 (DR3w17) (Homo sapiens, UniProt P01903+P01911, A100K/A102G/A103R/A169T/F55Y/I96L/K41T/L162R/M171V/P40S/Q125H/Q178H/Q39Y/R42S/S66N/T106N/T262R/W38E/Y61H); test: Class II peptide-binding assay, DR3 (pH 4.5); conditions: Table VIII;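 also: unlabeled peptide competing with a radiolabeled probe peptide for binding to affinity-purified HLA-DR3, IC50 regarded as an approximation of Kd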
T1 construct: used as sources of human HLA class II molecules; endogenous in cells; host or cells: MAT (EBV-transformed homozygous B cell line)

[2] = target: T2, DRB1*0401 (DR4w4) (Homo sapiens, UniProt P01903+P01911, A100K/A169T/F76Y/I96L/K127E/L162R/M171V/N62H/P40V/Q125Y/R42H/S133A/S149N/S66Y/V115G/V209L/W38E); test: Class II peptide-binding assay, DR4w4;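 also: unlabeled test peptides compete with a radiolabeled probe peptide for binding to affinity-purified HLA-DR, with DR amount titrated to capture a small fraction of label, IC50 approximating Kd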
T2 construct: used as sources of human HLA class II molecules; endogenous in cells; host or cells: PREISS (EBV-transformed homozygous B cell line)

[3] = target: DRB1*0701 (DR7) (Homo sapiens, UniProt P01903+P01911, A100R/A102G/A103Q/D57E/D86V/E43K/F76Y/K127E/L162R/M171V/P40G/Q125H/Q99D/R33Q/R42Y/R54Q/S133A/S66F/T210M/V115G/Y107V/Y59L/Y89S); test: Class II peptide-binding assay, DR7;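 also: unlabeled peptides compete with an iodinated probe peptide for binding to affinity-purified HLA-DR at neutral pH, DR amount titered to bind a small tracer fraction, IC50 approximating Kd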
Experimental: (§1) Class II peptide-binding assays. […] These assays were chosen as to be representative of the most common DR alleles.
(§2) Radiolabeled peptides were iodinated using the chloramine-T method. […] In appropriate stoichiometric conditions, the IC50 of an unlabeled test peptide to the purified DR is a reasonable approximation of the affinity of interaction (Kd). Peptides were tested in two to four completely independent experiments. […] Final detergent concentration in the incubation mixture was 0.05% Nonidet P-40. Assays were performed at pH 7.0 with the exception of DR3, which was performed at pH 4.5, and DRw53, which was performed at pH 5.0.
(§3) All subsequent inhibition and direct binding assays were the performed using these class II concentrations.

[4] = target: T3, DRB1*1101 (DR5w11) (Homo sapiens, UniProt P01903+P01911, A100R/A169T/A87E/I96F/K41T/L162R/M171V/P40S/Q125H/Q178H/Q39Y/Q99D/R42S/S66Y/T262R/V115G/W38E); test: Class II peptide-binding assay, DR5w11;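 also: competition by unlabeled test peptide against iodinated probe peptide binding to affinity-purified HLA-DR, class II amount titrated beforehand, half-maximal inhibitory concentration read as approximate Kd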
T3 construct: used as sources of human HLA class II molecules; endogenous in cells; host or cells: SWEIG (EBV-transformed homozygous B cell line)

[5] = target: T4, DRB10404 (DR4w14) (Homo sapiens, UniProt P01903+P01911, A100R/A169T/F76Y/I96L/K127E/L162R/M171V/N62H/P40V/Q125Y/R42H/S133A/S149N/S66Y/V209L/W38E); test: Class II peptide-binding assay, DR4w14;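 also: unlabeled peptides compete with a radiolabeled probe for binding to affinity-purified HLA-DR, neutral pH, class II amount titrated to bind a small fraction of label, IC50 approximates Kd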
T4 construct: used as sources of human HLA class II molecules; endogenous in cells; host or cells: BIN40 (EBV-transformed homozygous B cell line)

[6] = target: T5, DRB1*0101 (DR1) (Homo sapiens, UniProt P01903+P01911, A100R/D57E/F55L/F60I/F76Y/I96L/L162R/M171V/P40L/Q125E/R42F/V115G/Y59C); test: Class II peptide-binding assay, DR1;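 also: competition assay: unlabeled test peptides inhibit binding of a radiolabeled probe peptide to purified DR, with half-maximal inhibition taken as an approximate dissociation constant Kd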
T5 construct: used as sources of human HLA class II molecules; endogenous in cells; host or cells: LG2 (EBV-transformed homozygous B cell line)
Experimental: as §1, §2, §3

[7] = target: T6, DRB5*0101 (DR2w2a) (Homo sapiens, UniProt P01903+Q30154); test: Class II peptide-binding assay, DR2w2a (DR2w2B2);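 also: competitive binding assay: unlabeled peptide inhibiting binding of a radiolabeled probe peptide to purified DR molecules at pH 7.0, IC50 approximating Kd, lower means stronger binding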
T6 construct: used as sources of human HLA class II molecules; endogenous in cells; host or cells: GM3107 (EBV-transformed homozygous B cell line)

[8] = read-out: In IC50 Format DR3 nM, values in parentheses read as lower bounds
[9] = read-out: DR4w4 nM (In IC50 Format), purified HLA DR4w4
[10] = read-out: DR7 nM (In IC50 Format), purified HLA DR7
[11] = read-out: DR5w11 nM (In IC50 Format), purified HLA DR5w11
[12] = read-out: DR4w14 nM (In IC50 Format), purified HLA DR4w14
[13] = read-out: DR1 nM (In IC50 Format), purified HLA DR1
[14] = read-out: DR2w2B2 nM (In IC50 Format), purified HLA DR2w2β2

T3 sequence (P01903 26-254, other chains not shown): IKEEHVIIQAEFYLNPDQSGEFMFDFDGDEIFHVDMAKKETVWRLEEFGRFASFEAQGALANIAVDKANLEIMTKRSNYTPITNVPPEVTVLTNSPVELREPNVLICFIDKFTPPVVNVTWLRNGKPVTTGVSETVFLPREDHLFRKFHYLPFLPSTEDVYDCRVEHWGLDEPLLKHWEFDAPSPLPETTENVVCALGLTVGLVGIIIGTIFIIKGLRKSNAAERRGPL
T1 sequence (P01903 26-254, other chains not shown): as above

## QGFFCPDPAPGAGGM [Peptide 39.0376]
[1]; [8]
  pIC50: 4.18

## KNGVVKDVFAFGGAV [Peptide 39.0381]
[1]; [8]
  pIC50: < 3.92

## CSCC[C@H](NC(=O)[C@H](CC(=O)O)NC(=O)[C@H](CC(C)C)NC(=O)[C@H](Cc1c[nH]cn1)NC(=O)[C@@H](NC(=O)[C@H](CCC(=O)O)NC(=O)[C@@H]1CCCN1C(=O)[C@H](CO)NC(=O)[C@H](C)NC(=O)[C@@H]1CCCN1C(=O)[C@H](CC(C)C)NC(=O)[C@@H](N)CCCNC(=N)N)[C@@H](C)O)C(=O)N[C@@H](CC(C)C)C(=O)N[C@@H](CCCNC(=N)N)C(=O)N[C@@H](Cc1c[nH]cn1)C(=O)O [Peptide 39.0338]
[1]; [8]
  pIC50: < 3.95

## SLAFLPESFDGDPAS [Peptide 39.0349]
[1]; [8]
  pIC50: < 3.95

## NQEVTAEDGTQRCEK [Peptide 39.0347]
[1]; [8]
  pIC50: < 3.95

## CC(C)C[C@H](NC(=O)[C@H](Cc1ccc(O)cc1)NC(=O)[C@H](CC(N)=O)NC(=O)[C@@H](N)Cc1ccc(O)cc1)C(=O)N[C@@H](CO)C(=O)N[C@H](C(=O)N[C@@H](CC(=O)O)C(=O)N[C@H](C(=O)NCC(=O)N[C@@H](CO)C(=O)N[C@@H](CS)C(=O)N[C@H](C(=O)N[C@@H](CC(C)C)C(=O)N[C@H](C(=O)N[C@@H](CS)C(=O)O)C(C)C)[C@@H](C)O)C(C)C)[C@@H](C)O [Peptide 39.0346] (H-YNYLSTDVGSCTLVC-OH)
[1]; [8]
  pIC50: 4.29

## DLTLGLEPSEEEAPR [Peptide 39.0377]
[1]; [8]
  pIC50: < 3.92

## CSCC[C@H](NC(=O)CNC(=O)[C@H](CC(C)C)NC(=O)CNC(=O)[C@H](Cc1ccc(O)cc1)NC(=O)[C@@H](N)CS)C(=O)N[C@@H](CCC(=O)O)C(=O)N[C@@H](Cc1c[nH]cn1)C(=O)N[C@@H](CC(C)C)C(=O)N[C@@H](CCCNC(=N)N)C(=O)N[C@@H](CCC(=O)O)C(=O)N[C@H](C(=O)N[C@@H](CCCNC(=N)N)C(=O)N[C@@H](C)C(=O)N[C@H](C(=O)O)C(C)C)C(C)C [Peptide 39.0348]
[1]; [8]
  pIC50: 4.44

## ETEYHADGGKVPIKW [Peptide 39.0367]
[1]; [8]
  pIC50: < 3.95

## CSCC[C@H](NC(=O)[C@H](CCCNC(=N)N)NC(=O)[C@H](CO)NC(=O)[C@H](Cc1ccccc1)NC(=O)[C@H](CCC(=O)O)NC(=O)[C@H](CO)NC(=O)[C@@H](NC(=O)[C@H](CC(C)C)NC(=O)[C@H](CCC(=O)O)NC(=O)[C@H](CCCNC(=N)N)NC(=O)[C@@H](N)Cc1ccccc1)C(C)C)C(=O)N[C@@H](C)C(=O)N[C@@H](CCCNC(=N)N)C(=O)N[C@@H](CC(=O)O)C(=O)N1CCC[C@H]1C(=O)O [Peptide 39.0370]
[1]; values in parentheses read as lower bounds, read-out: In IC50 Format DR3
  pIC50: 5.37

## GDLVDAEEYLVPQQG [Peptide 39.0375]
[1]; [8]
  pIC50: 4.92

## CC(C)C[C@H](NC(=O)[C@H](CCC(N)=O)NC(=O)[C@@H](NC(=O)[C@@H]1CCCN1)C(C)C)C(=O)N[C@@H](Cc1c[nH]c2ccccc12)C(=O)N[C@H](C(=O)N[C@@H](CC(=O)O)C(=O)N[C@@H](CO)C(=O)N[C@H](C(=O)N1CCC[C@H]1C(=O)N1CCC[C@H]1C(=O)N1CCC[C@H]1C(=O)NCC(=O)N[C@H](C(=O)N[C@@H](CCCNC(=N)N)C(=O)O)[C@@H](C)O)[C@@H](C)O)C(C)C [Peptide 39.0413]
[1]; read-out: In IC50 Format DR3
  pIC50: 5.00

## ARRLKAIYARRLK [Peptide 640.04]
[2]; read-out: In IC50 Format DR4w4, Table VIII
  pIC50: < 4.65
[3]; read-out: In IC50 Format DR7, Table VIII
  pIC50: 7.53
[4]; read-out: In IC50 Format DR5w11, Table VIII
  pIC50: 6.18
[5]; read-out: In IC50 Format DR4w14, Table VIII
  pIC50: 6.18
[6]; read-out: In IC50 Format DR1, Table VIII
  pIC50: 8.44
[7]; read-out: In IC50 Format DR2w2β2, Table VIII
  pIC50: 8.06

## MQYIKANSKFIGITE [Peptide 812.05]
[2]; purified HLA DR4w4, read-out: DR4w4 nM (In IC50 Format)
  pIC50: 6.64
[3]; purified HLA DR7, read-out: DR7 nM (In IC50 Format)
  pIC50: 8.11
[4]; purified HLA DR5w11, read-out: DR5w11 nM (In IC50 Format)
  pIC50: 8.17
[5]; purified HLA DR4w14, read-out: DR4w14 nM (In IC50 Format)
  pIC50: 7.07
[6]; purified HLA DR1, read-out: DR1 nM (In IC50 Format)
  pIC50: 7.19
[7]; purified HLA DR2w2β2, read-out: DR2w2B2 nM (In IC50 Format)
  pIC50: 8.62

## AFAAAATLKA-NH2 [Peptide 770.01]
[2]; [9]
  pIC50: 7.63
[3]; [10]
  pIC50: 6.16
[4]; [11]
  pIC50: 6.60
[5]; [12]
  pIC50: 6.45
[6]; [13]
  pIC50: 7.11
[7]; [14]
  pIC50: 7.37

## YARFQSQTYLKAKT-NH2 [Peptide 717.33]
[2]; [9]
  pIC50: 6.73
[3]; [10]
  pIC50: 6.19
[4]; [11]
  pIC50: 5.81
[5]; [12]
  pIC50: 5.08
[6]; [13]
  pIC50: 5.78
[7]; [14]
  pIC50: 6.59

## YARFQSNTTLKAKT-NH2 [Peptide 717.47]
[2]; [9]
  pIC50: 8.42
[3]; [10]
  pIC50: 5.38
[4]; [11]
  pIC50: 7.74
[5]; [12]
  pIC50: 7.83
[6]; [13]
  pIC50: 7.38
[7]; [14]
  pIC50: 6.35

## YARFASQTTLKAKT-NH2 [Peptide 717.56]
[2]; [9]
  pIC50: 8.28
[3]; [10]
  pIC50: 5.20
[4]; [11]
  pIC50: 7.68
[5]; [12]
  pIC50: 7.89
[6]; [13]
  pIC50: 8.51
[7]; [14]
  pIC50: 6.93

## CC(C)C[C@H](NC(=O)[C@H](CCCCN)NC(=O)[C@H](CC(C)C)NC(=O)[C@@H](NC(=O)[C@H](CC(N)=O)NC(=O)[C@H](CCC(N)=O)NC(=O)[C@H](CCCCN)NC(=O)[C@@H](NC(=O)[C@H](Cc1ccc(O)cc1)NC(=O)[C@H](CCCCN)NC(=O)[C@@H]1CCCN1C(=O)[C@@H](N)CS)C(C)C)[C@@H](C)O)C(=O)N[C@@H](C)C(=O)N[C@H](C(=O)NCC(=O)O)[C@@H](C)O [Peptide 852.01]
[2]; read-out: DR4w4 nM, Table VIII, In IC50 Format
  pIC50: 7.52
[3]; read-out: DR7 nM, Table VIII, In IC50 Format
  pIC50: 7.18
[4]; read-out: DR5w11 nM, Table VIII, In IC50 Format
  pIC50: 7.41
[5]; read-out: DR4w14 nM, Table VIII, In IC50 Format
  pIC50: 5.15
[6]; read-out: DR1 nM, Table VIII, In IC50 Format
  pIC50: 7.50
[7]; read-out: DR2w2B2 nM, Table VIII, In IC50 Format
  pIC50: 8.54

## YARFQSQTTLKAKT [Peptide 717.67]
[2]; [9]
  pIC50: 8.22
[3]; [10]
  pIC50: 5.86
[4]; [11]
  pIC50: 8.13
[5]; [12]
  pIC50: 7.95
[6]; [13]
  pIC50: 8.44
[7]; [14]
  pIC50: 6.78

## YARFQSQTTLKAKE-NH2 [Peptide 717.28]
[2]; [9]
  pIC50: 7.58
[3]; [10]
  pIC50: 5.30
[4]; [11]
  pIC50: 7.78
[5]; [12]
  pIC50: 7.89
[6]; [13]
  pIC50: 8.35
[7]; [14]
  pIC50: 7.02

## Ac-AFAAAATLKA-NH2 [Peptide 770.02]
[2]; [9]
  pIC50: 7.67
[3]; [10]
  pIC50: 6.49
[4]; [11]
  pIC50: 6.98
[5]; [12]
  pIC50: 6.99
[6]; [13]
  pIC50: 7.45
[7]; [14]
  pIC50: 6.88

## YARFASQTTLKAKT-NH2 [Peptide 782.02]
[2]; [9]
  pIC50: 8.60
[3]; [10]
  pIC50: 5.20
[4]; [11]
  pIC50: 7.59
[5]; [12]
  pIC50: 7.83
[6]; [13]
  pIC50: 8.44
[7]; [14]
  pIC50: 6.72
